This is an account of results in US20240124515A1, “ORALLY ACTIVE LEUKEMIA INHIBITORY FACTOR (LIF) ANTAGONISTS FOR THE TREATMENT OF CANCER” (Evestra, Inc., priority 2021, published 2024).

One series concerns MCF7/LIF cells. Description: Effect on MCF7 cells with artificial LIF expression (FIG. 1). The format is cell-based. To be noted: artificial expression of LIF in MCF7 cells. As for the experimental part: (§1) The artificial expression of LIF in MCF7 cells (MCF7/LIF) made those cells vulnerable to LIF inhibitors (FIG. 1) such as compound 5 (EC905) and compound 13 (EC915)
(§2) In order to identify the mechanism of action of EC914, we checked cytotoxicity of these compounds in various cells lines and derived IC50 values. Briefly, 5×10^3 cells were seeded in 96-well plates and incubated with compounds (0.0001-10 μmol/L) or dimethyl sulfoxide (DMSO; 0.02% v/v) for 24, 48, and 72 hours at 37° C. and cell viability was measured using a Fluoroscan plate reader (Nair et al. Estrogen receptor-β activation in combination with letrozole blocks the growth of breast cancer tumors resistant to letrozole therapy. Steroids. 2011 July; 76(8):792-6).

A further series concerns xenograft and PDX models. To be noted: background; cited from earlier work.
Series [1] in a line: PK study, oral bioavailability in rats. The format is in vivo, Sprague Dawley rats. To be noted: for bioavailability: Sprague Dawley, rat, plasma, po. An excerpt:
For example, the oral bioavailability can be determined by the formula (1):
F=100*(AUCpo*Div/AUCiv*Dpo) (1)
where: F is bioavailability; AUCpo is dose-corrected area under curve of non-intravenous oral drug; Div is the intravenous dose; AUCiv is the area under the curve intravenous; and Dpo is the oral dose.

The subject of the next series is other steroid receptors. Description: Binding to other steroid receptors. To be noted: Table 1.
For series [2] the following is noted: rodent pharmacokinetic (PK) studies.
A further series concerns LIF/LIFR. To be noted: background; cited from earlier work.
The next series has as its system pSTAT3. Description: Western blot of STAT3 phosphorylation (FIG. 2). The format is cell-based. The protocol:
It is believed that EC914 binds directly to LIFR and blocks LIF signaling. Binding of EC914 to LIFR was measured by microscale thermophoresis (MST). The binding kD was 174 nM (FIG. 3).
In brief, MDA-MB-231/BT549 cells were treated with compounds for 3 days at different concentrations (10, 100 nM) and cell lysates were separated by 8% SDS-PAGE and transferred to polyvinylidene difluoride membranes. Membranes were then incubated with primary antibodies including phosphorylated and/or total pSTAT3. After overnight incubation at 4° C., membranes were incubated with secondary antibodies. Immunoreactive bands were then visualized by the enhanced chemiluminescence (ECL) detection system (GE healthcare.
For orientation: Immunoblotting shows a protein as a band on a membrane.

The subject of series [3] is murine and human PCa cells. Description: Viability and Incucyte Cytotox assay of PCa cells (FIG. 6). The format is cell-based. The source says:
FIG. 6A depicts a line graph showing significant decline in the viability of murine and human PCa cells upon treatment with EC914 and/or Docetaxel.

The next series deals with HESE cells. Description: Caspase-3/7 apoptosis assay (Caspase-Glo). The format is cell-based. To be noted: Caspase-3/7 activity. As for the experimental part: Caspase-3/7 activity in HESE cells was measured using Caspase-Glo assay kit (Promega), as described before (Bhaskaran et al, 2013). Briefly, cells were homogenized in homogenization buffer (25 mmol/L HEPES, pH 7.5, 5 mmol/L MgCl2, and 1 mmol/L EGTA), protease inhibitors, and the homogenate was centrifuged at 13,000 rpm at 4° C. for 15 minutes. To 10 μL of the supernatant containing protein was added to an equal volume of the assay reagent and incubated at room temperature for 2 hours. The luminescence was measured using a luminometer.

The subject of series [4] is NE-1.8 (neuro endocrine-like) prostate cancer cell line. Description: Calcein AM fluorescent dye-based cell viability assay, NE-1.8 cells. To be noted: 96 hours, 50 nM to 250 nm EC914. As for the experimental part: In one test, NE-1.8 (neuro endocrine-like) prostate cancer cell line was treated with compound 12 (EC914).
After 96 hours, the cell viability was observed using Calcein AM fluorescent dye-based cell viability assay. More than 50-80% of cell growth inhibition was observed from 50 nM to 250 nm concentration of EC914 compared to vehicle control. Similar growth inhibition trend was observed upon treatment with LIF inhibitor on the C42B prostate cancer cell line at 48 hrs.

The next series has as its system MDA-MB-231 xenograft. Description: MDA-MB-231 tumor xenograft study. The format is in vivo, athymic nude mice. To be noted: TNBC mouse xenograft model, initial 3 doses of 10 mg/kg, oral, FIG. 5. The protocol: Uniform suspensions of human breast cancer MDA-MB-231 cells (2×10^6) in 100 μL (0.02 carboxymethyl cellulose in phosphate buffered saline) were injected subcutaneously into the right and left flanks of 4- to 5-week-old female athymic nude mice (Charles River Laboratories). After 10 days, when the tumor […] reaches 100 mm^3, the mice were randomly allocated to 3 groups of each containing 6 animals. Group 1 served as the untreated control, groups 2 received EC914 orally at 10 mg/kg daily for 3 doses. All drug was formulated in a vehicle containing 58.5% Labrasol ALF, 22.5% Labrafil M, 1944 CS, 9% Capryol 90 and 10% water q.s. Tumors were allowed to reach palpability before drug intervention. Tumor size was measured every 3 days using digital Vernier Calipers and tumor volume was calculated using the ellipsoid formula [D×(d2)]/2, where D is the large diameter of the tumor and d represents the small diameter. On day 19, the mice were euthanized, and tumors were harvested for protein and gene expression studies since the control tumors reached maximum allowable size as the IACUC regulations (See FIG. 5).

Series [5] deals with STAT1, STAT3, AKT, ERK, Myc, and tCyclinD1 proteins. Description: Western blot of cellular signaling in PCa cells (FIG. 7A). The settings on record: no change in total proteins. The format is cell-based. The protocol:
(§3) In this study, the cellular signaling disrupted upon EC 914 treatment was analyzed. […] Thus, cancer stemness enrichment upon DTX treatment might be abolished by LIF/LIFR signaling disruption through EC914 inhibitor.

Series [6] deals with triple negative breast cancer cells. Description: Antiproliferative activity in TNBC cells. The format is cell-based. The protocol:
as §1, §2

The next series addresses T1, LIFR (Homo sapiens, UniProt P42702).
T1 sequence (P42702 45-1097): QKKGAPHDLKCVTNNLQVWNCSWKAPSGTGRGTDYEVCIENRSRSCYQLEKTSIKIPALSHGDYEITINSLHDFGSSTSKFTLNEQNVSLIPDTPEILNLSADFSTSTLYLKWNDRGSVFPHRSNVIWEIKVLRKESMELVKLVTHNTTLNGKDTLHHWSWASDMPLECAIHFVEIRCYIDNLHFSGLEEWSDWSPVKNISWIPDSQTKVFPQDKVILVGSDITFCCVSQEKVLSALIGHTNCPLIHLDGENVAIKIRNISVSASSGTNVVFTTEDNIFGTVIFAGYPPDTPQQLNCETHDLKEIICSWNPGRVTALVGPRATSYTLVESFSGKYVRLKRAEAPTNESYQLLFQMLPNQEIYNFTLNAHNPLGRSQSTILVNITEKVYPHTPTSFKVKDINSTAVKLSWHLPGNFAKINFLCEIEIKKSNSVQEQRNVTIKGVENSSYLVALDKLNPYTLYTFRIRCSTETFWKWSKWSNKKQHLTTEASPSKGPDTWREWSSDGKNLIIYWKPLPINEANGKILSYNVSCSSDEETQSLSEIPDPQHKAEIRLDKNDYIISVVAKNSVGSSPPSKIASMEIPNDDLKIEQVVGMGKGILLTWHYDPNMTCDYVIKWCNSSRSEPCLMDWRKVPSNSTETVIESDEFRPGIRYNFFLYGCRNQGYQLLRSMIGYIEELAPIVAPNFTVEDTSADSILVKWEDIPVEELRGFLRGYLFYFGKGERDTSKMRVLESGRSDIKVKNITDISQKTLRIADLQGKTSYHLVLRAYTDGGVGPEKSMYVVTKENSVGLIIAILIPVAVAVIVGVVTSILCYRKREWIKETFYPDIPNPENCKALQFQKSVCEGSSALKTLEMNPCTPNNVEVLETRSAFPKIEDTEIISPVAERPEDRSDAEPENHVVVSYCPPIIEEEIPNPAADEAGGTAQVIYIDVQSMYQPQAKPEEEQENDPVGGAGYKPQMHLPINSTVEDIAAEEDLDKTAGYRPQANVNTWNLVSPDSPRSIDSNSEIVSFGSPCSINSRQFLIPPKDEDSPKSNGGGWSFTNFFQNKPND
Description: Microscale thermophoresis (MST) binding to LIFR. The protocol: Binding of EC914 to LIFR was measured by microscale thermophoresis (MST).

Series [7] deals with 22Rv1 and cE2 mouse syngeneic cells. Description: Prostate cancer tumor models in vivo (FIG. 9). The settings on record: 22Rv1 and cE2 subcutaneous tumors in athymic nude mice. As for the experimental part:
22Rv1 and cE2 mouse syngeneic cells were subcutaneously implanted in athymic nude mice (0.75×10^6/mice). Two weeks after post-implantation, mice were randomized into four groups. Group 1 mice received saline, whereas group 2 and group 3 mice received EC 914 (every alternative day) or DTX (once in 3 days) alone. Finally, group 4 mice were administered with both EC 914 and DTX. […] Based on this rationale, it is believed that LIFR is overexpressed in response to DTX treatment and induces resistance, and enriches the CSC population in metastatic CRPC.

Series [8] has as its system MDR1, CD44, Sox2, ALDH1, and CD133. Description: Western blot of CSC marker expression in PCa (FIG. 7C). The format is cell-based. The protocol:
as §3

pKd: −log10 of the molar value. Like-named read-outs stand apart in the source and are kept apart here.

As for `C#CC(F)(F)[C@]1(O)CCC2C3CCC4=CC(=O)CCC4=C3[C@@H](c3cccc(-c4cccnc4)c3)C[C@@]21C` (stereo partly shown) [EC905], the “vulnerability of MCF7/LIF cells to LIF inhibitors” value with MCF7/LIF cells was “vulnerable”.
As for `C#CC(F)(F)[C@]1(O)CC[C@H]2[C@@H]3CCC4=CC(=O)CCC4=C3[C@@H](c3ccc(-c4c(C)cc(C)cc4C)cc3)C[C@@]21C` [EC359, reference compound], the “efficacy in preclinical xenograft and PDX models” value with xenograft and PDX models is recorded as “good efficacy”. For the same compound, the oral bioavailability in series [1] (Table 1) and in series [2] was 16% each time. For the same compound, the “Binding to other steroid receptors” value with other steroid receptors is reported as “Low binding to PR”.
In the case of `C#CC(F)(F)[C@]1(O)CC[C@H]2[C@@H]3CCC4=CC(=O)CCC4=C3[C@@H](c3ccc(C4CC4)cc3)C[C@@]21C` [EC330], in the series on LIF/LIFR, the “LIF/LIFR mediated proliferation and tumor growth” value is “efficiently inhibited”.
On to `C#CC(F)(F)[C@]1(O)CCC2C3CCC4=CC(=O)CCC4=C3[C@@H](c3ccc(C#N)cc3C)C[C@@]21C` (stereo partly shown) [EC915], for which, in the series with MCF7/LIF cells, the “vulnerability of MCF7/LIF cells to LIF inhibitors” value is on record as “vulnerable”.
With `C#CC(F)(F)[C@]1(O)CCC2C3CCC4=CC(=O)CCC4=C3[C@@H](c3cccc(C#N)c3C)C[C@@]21C` (stereo partly shown) [EC914], in the series on pSTAT3, the STAT3 phosphorylation result is listed as “reduced STAT3 phosphorylation”. Further, the “cytotoxicity of Docetaxel in PCa” value in series [3] (22Rv1 cells, Incucyte Cytotox assay, FIG. 6B) is on record as “increases cytotoxicity of Docetaxel”. The “viability of PCa cells” value in [3] (murine and human PCa cells, FIG. 6A) is given as “decreases viability”. Besides, in the series with HESE cells, the “percent of apoptosis induced” value is recorded as “comparable to that of EC359”. In addition, the “cell growth inhibition compared to vehicle control” value in series [4] was 50-80%. The tumor burden entry with MDA-MB-231 xenograft is “reduced tumors burden”. Further, in [5], the “phosphorylation of STAT1 and STAT3 and of AKT, ERK, Myc, tCyclinD1” value was “decreased”. Moreover, the antiproliferative activity result in series [6] is “potent antiproliferative activity”. Moreover, the pKd at LIFR (MST, FIG. 3, read-out: binding kD to LIFR) was 6.76; at LIFR (Table 1, read-out: LIFR binding), 6.76. For the same compound, the bioavailability (in general, dose-corrected exposure relative to a reference, in per cent) in [1] (PK studies in Sprague Dawley rats, FIG. 4) came to 87.9%; in series [1] (Table 1), 87.9%. The tumor growth result in series [7] is recorded as “inhibit tumor growth”. In addition, the “Binding to other steroid receptors” value in the series with other steroid receptors is given as “No”. Further, the “key CSC marker expression (MDR1, CD44, Sox2, ALDH1, CD133)” value in series [8] is recorded as “specifically decreases”.
